Measurements taken from the kinase profiling compilation of Christmann-Franck et al. (2016).

How the values were obtained:
Test in all cases: radiometric filter-binding kinase assay
[1] = test system: AKT2 (human), P31751 [S474D]
AURKB (human) = AURKB (human) (UniProt Q96GD4)
CAMKK2 (human) = CAMKK2 (human) (UniProt Q96RR4)
CHEK1 (human) = CHEK1 (human) (UniProt O14757)
CHEK2 (human) = CHEK2 (human) (UniProt O96017)
EPHB4 (human) = EPHB4 (human) (UniProt P54760)
GCK (human) = GCK (human) (UniProt Q12851)
IGF1R (human) = IGF1R (human) (UniProt P08069)
IKBKB (human) = IKBKB (human) (UniProt O14920)
Chain of IKBKB (human) (O14920 whole entry, looked up): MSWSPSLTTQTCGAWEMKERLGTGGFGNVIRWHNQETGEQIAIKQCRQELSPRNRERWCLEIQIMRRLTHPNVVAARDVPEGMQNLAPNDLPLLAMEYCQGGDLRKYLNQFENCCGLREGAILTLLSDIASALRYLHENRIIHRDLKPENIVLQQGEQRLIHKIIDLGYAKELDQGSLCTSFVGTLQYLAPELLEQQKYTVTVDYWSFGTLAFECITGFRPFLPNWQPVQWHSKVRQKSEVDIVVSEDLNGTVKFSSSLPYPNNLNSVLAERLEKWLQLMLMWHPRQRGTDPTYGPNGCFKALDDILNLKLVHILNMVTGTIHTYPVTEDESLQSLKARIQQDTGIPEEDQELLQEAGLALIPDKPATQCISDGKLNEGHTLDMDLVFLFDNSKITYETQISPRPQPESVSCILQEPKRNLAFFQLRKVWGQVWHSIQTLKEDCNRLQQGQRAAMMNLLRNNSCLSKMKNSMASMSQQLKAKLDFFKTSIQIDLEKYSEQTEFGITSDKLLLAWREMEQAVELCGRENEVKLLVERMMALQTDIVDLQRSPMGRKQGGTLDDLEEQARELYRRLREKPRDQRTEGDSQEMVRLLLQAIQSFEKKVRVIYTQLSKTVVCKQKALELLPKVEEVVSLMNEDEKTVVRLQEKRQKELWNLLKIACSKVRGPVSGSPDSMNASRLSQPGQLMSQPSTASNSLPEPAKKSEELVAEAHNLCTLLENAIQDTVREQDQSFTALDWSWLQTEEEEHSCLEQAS

MAP2K1 (human) = MAP2K1 (human) (UniProt Q02750)
MAP3K1 (human) = MAP3K1 (human) (UniProt Q13233)
MAP3K5 (human) = MAP3K5 (human) (UniProt Q99683)
MAPK1 (human) = MAPK1 (human) (UniProt P28482)
MAPK10 (human) = MAPK10 (human) (UniProt P53779)
MAPK15 (human) = MAPK15 (human) (UniProt Q8TD08)
MAPK3 (human) = MAPK3 (human) (UniProt P27361)
MAPK9 (human) = MAPK9 (human) (UniProt P45984)
MAPKAPK2 (human) = MAPKAPK2 (human) (UniProt P49137)
Chain of MAPKAPK2 (human) (P49137 whole entry, looked up): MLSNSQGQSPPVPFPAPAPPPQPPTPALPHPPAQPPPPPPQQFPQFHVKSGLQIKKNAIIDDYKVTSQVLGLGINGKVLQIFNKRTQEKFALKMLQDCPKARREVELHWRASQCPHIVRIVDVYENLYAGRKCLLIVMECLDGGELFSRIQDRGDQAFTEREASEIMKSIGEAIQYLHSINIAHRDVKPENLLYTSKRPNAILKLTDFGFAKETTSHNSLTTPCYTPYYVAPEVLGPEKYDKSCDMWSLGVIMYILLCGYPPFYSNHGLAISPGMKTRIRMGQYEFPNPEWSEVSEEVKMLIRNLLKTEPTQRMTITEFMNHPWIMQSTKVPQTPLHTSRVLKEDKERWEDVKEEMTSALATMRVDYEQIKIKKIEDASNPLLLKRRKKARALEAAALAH

MARK2 (human) = MARK2 (human) (UniProt Q7KZI7)
Chain of MARK2 (human) (Q7KZI7 whole entry, looked up): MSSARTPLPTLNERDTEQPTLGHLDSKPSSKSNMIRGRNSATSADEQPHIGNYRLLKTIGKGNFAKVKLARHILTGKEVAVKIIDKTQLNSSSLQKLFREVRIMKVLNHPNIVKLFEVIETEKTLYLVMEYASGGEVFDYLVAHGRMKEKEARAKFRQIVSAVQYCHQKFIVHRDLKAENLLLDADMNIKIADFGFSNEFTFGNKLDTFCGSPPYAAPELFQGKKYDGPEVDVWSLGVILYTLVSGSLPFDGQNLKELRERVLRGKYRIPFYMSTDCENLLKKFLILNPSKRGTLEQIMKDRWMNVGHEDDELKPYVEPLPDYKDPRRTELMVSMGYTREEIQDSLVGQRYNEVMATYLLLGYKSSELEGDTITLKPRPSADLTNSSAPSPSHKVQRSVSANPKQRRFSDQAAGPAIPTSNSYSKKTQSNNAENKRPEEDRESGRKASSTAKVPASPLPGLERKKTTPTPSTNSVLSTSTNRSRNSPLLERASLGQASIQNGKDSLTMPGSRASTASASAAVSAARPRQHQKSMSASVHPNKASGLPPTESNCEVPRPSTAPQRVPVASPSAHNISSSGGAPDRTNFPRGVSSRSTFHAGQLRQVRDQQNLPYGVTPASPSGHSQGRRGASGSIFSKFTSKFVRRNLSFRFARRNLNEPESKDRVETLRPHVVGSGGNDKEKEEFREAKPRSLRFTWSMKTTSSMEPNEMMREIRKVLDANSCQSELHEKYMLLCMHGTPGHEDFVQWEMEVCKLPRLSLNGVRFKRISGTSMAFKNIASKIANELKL

MINK1 (human) = MINK1 (human) (UniProt Q8N4C8)
MKNK1 (human) = MKNK1 (human) (UniProt Q9BUB5)
MKNK2 (human) = MKNK2 (human) (UniProt Q9HBH9)
NEK2 (human) = NEK2 (human) (UniProt P51955)
NTRK1 (human) = NTRK1 (human) (UniProt P04629)
PHKG1 (human) = PHKG1 (human) (UniProt Q16816)
PIM2 (human) = PIM2 (human) (UniProt Q9P1W9)
PKN2 (human) = PKN2 (human) (UniProt Q16513)
PRKAA1 or PRKAA2 (rat) = conditions: accession and sequence are those of the human protein
PRKACA (human) = PRKACA (human) (UniProt P17612)
PRKCA (human) = PRKCA (human) (UniProt P17252)
RPS6KA1 KD1 KD2 (human) = RPS6KA1 KD1 KD2 (human) (UniProt Q15418)
SRC (human) = SRC (human) (UniProt P12931)
Chain of SRC (human) (P12931 whole entry, looked up): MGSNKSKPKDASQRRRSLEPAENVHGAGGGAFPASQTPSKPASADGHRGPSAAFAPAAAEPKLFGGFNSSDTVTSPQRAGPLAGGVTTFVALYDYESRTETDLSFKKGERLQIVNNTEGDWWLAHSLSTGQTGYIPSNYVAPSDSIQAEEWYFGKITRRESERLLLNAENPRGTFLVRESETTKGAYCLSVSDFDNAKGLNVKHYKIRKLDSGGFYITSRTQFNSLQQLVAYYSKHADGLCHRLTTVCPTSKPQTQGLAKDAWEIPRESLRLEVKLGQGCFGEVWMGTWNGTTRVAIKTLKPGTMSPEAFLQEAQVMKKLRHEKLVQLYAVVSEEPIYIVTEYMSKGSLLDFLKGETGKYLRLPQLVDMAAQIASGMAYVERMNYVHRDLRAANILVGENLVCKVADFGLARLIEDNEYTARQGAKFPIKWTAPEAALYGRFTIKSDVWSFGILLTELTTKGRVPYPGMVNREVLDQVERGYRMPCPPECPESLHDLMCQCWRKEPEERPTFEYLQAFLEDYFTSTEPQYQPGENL

[2] = target: STK11 CAB39 STRADA (human) (UniProt Q9Y376+Q7RTN6+Q15831)
Chain of STK11 CAB39 STRADA (human) (Q15831 whole entry, looked up): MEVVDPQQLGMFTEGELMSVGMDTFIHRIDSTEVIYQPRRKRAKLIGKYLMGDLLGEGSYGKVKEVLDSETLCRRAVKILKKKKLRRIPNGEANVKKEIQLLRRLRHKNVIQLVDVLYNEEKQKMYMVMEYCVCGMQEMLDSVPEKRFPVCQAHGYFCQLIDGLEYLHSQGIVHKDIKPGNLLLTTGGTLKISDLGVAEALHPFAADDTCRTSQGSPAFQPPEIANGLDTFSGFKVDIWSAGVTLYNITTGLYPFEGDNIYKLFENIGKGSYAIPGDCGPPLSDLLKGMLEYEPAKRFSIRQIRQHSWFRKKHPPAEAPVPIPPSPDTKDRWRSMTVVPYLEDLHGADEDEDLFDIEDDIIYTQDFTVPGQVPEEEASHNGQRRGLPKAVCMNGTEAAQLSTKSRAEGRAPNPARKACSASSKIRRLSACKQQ
Chain of STK11 CAB39 STRADA (human) (Q7RTN6 whole entry, looked up): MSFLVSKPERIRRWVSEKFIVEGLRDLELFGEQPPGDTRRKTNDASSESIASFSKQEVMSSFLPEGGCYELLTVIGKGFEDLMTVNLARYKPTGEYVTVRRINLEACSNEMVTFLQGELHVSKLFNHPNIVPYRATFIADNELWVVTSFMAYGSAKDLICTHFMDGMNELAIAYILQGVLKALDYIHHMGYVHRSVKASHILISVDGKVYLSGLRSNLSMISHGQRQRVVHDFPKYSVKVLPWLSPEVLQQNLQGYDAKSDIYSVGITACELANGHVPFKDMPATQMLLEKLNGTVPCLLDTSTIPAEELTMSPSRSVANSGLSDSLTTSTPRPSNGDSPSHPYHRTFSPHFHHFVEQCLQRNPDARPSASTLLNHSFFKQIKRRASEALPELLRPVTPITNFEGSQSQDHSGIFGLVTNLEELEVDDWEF
Chain of STK11 CAB39 STRADA (human) (Q9Y376 whole entry, looked up): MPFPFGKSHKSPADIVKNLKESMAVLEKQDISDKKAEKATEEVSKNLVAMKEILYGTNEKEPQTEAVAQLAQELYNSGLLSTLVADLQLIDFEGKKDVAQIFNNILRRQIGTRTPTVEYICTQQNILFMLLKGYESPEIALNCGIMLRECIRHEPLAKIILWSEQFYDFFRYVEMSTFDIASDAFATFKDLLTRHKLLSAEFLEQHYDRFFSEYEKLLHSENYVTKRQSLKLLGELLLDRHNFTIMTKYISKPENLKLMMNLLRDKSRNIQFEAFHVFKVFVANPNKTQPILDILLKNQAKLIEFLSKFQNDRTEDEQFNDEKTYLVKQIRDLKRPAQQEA

STK3 (human) = STK3 (human) (UniProt Q13188)
YES1 (human) = YES1 (human) (UniProt P07947)

Chain of EPHB4 (human) (P54760 whole entry, looked up): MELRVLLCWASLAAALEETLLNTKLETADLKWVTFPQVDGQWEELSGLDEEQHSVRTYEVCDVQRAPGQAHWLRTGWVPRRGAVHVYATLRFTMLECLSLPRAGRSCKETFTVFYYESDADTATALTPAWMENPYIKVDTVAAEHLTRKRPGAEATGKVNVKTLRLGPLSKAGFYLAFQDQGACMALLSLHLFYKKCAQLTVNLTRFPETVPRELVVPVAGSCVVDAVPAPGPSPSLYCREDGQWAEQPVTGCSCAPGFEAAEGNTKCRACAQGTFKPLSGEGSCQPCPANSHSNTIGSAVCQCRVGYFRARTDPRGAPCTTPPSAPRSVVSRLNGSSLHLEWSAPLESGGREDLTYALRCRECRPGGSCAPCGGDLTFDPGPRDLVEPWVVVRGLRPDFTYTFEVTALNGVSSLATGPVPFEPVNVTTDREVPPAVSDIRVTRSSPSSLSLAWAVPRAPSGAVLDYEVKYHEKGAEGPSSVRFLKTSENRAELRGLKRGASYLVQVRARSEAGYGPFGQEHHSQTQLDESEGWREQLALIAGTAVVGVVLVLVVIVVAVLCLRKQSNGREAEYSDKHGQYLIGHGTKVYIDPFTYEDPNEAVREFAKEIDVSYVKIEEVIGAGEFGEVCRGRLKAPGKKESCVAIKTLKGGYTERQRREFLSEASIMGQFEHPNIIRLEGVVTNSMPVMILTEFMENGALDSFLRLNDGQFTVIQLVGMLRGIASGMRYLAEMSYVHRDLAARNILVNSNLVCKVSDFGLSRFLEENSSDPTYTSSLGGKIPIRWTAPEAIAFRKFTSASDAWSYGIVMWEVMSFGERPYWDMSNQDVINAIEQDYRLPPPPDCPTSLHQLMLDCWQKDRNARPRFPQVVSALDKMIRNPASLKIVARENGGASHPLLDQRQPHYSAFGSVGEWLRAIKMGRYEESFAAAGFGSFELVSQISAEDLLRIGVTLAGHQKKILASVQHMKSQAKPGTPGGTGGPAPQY
Chain of AURKB (human) (Q96GD4 whole entry, looked up): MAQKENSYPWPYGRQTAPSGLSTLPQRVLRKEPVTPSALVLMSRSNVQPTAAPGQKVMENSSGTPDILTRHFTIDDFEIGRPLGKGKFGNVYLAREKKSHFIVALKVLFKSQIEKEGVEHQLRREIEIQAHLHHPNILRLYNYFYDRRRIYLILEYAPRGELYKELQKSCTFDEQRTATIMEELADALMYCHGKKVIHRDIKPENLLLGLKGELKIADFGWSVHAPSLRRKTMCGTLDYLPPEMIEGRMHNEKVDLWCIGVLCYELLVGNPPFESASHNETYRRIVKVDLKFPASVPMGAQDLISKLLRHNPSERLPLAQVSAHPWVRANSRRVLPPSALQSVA

## O=C(NOCC(O)CO)c1ccc(F)c(F)c1Nc1ccc(I)cc1Cl (configuration not stated)
[1]; compound 1.0 µM
  residual activity: 97%
[1]; compound 10.0 µM
  residual activity: 90%
AURKB (human); compound 1.0 µM
  residual activity: 99%
AURKB (human); compound 10.0 µM
  residual activity: 78%
CAMKK2 (human); compound 1.0 µM
  residual activity: 108%
CAMKK2 (human); compound 10.0 µM
  residual activity: 103%
CHEK1 (human); compound 1.0 µM
  residual activity: 116%
CHEK1 (human); compound 10.0 µM
  residual activity: 119%
CHEK2 (human); compound 1.0 µM
  residual activity: 104%
CHEK2 (human); compound 10.0 µM
  residual activity: 93%
EPHB4 (human); compound 1.0 µM
  residual activity: 98%
EPHB4 (human); compound 10.0 µM
  residual activity: 86%
GCK (human); compound 1.0 µM
  residual activity: 79%
GCK (human); compound 10.0 µM
  residual activity: 91%
IGF1R (human); compound 1.0 µM
  residual activity: 76%
IGF1R (human); compound 10.0 µM
  residual activity: 98%
IKBKB (human); compound 1.0 µM
  residual activity: 78%
IKBKB (human); compound 10.0 µM
  residual activity: 89%
MAP2K1 (human); compound 1.0 µM
  residual activity: 36%
MAP2K1 (human); compound 10.0 µM
  residual activity: 3%
MAP3K1 (human); compound 1.0 µM
  residual activity: 88%
MAP3K1 (human); compound 10.0 µM
  residual activity: 93%
MAP3K5 (human); compound 1.0 µM
  residual activity: 102%
MAP3K5 (human); compound 10.0 µM
  residual activity: 112%
MAPK1 (human); compound 1.0 µM
  residual activity: 83%
MAPK1 (human); compound 10.0 µM
  residual activity: 79%
MAPK10 (human); compound 1.0 µM
  residual activity: 83%
MAPK15 (human); compound 1.0 µM
  residual activity: 95%
MAPK15 (human); compound 10.0 µM
  residual activity: 98%
MAPK3 (human); compound 1.0 µM
  residual activity: 100%
MAPK3 (human); compound 10.0 µM
  residual activity: 101%
MAPK9 (human); compound 1.0 µM
  residual activity: 88%
MAPK9 (human); compound 10.0 µM
  residual activity: 92%
MAPKAPK2 (human); compound 1.0 µM
  residual activity: 104%
MAPKAPK2 (human); compound 10.0 µM
  residual activity: 102%
MARK2 (human); compound 1.0 µM
  residual activity: 101%
MARK2 (human); compound 10.0 µM
  residual activity: 101%
MINK1 (human); compound 1.0 µM
  residual activity: 119%
MINK1 (human); compound 10.0 µM
  residual activity: 127%
MKNK1 (human); compound 1.0 µM
  residual activity: 106%
MKNK1 (human); compound 10.0 µM
  residual activity: 95%
MKNK2 (human); compound 1.0 µM
  residual activity: 89%
MKNK2 (human); compound 10.0 µM
  residual activity: 90%
NEK2 (human); compound 1.0 µM
  residual activity: 98%
NEK2 (human); compound 10.0 µM
  residual activity: 94%
NTRK1 (human); compound 1.0 µM
  residual activity: 79%
NTRK1 (human); compound 10.0 µM
  residual activity: 78%
PHKG1 (human); compound 1.0 µM
  residual activity: 94%
PHKG1 (human); compound 10.0 µM
  residual activity: 90%
PIM2 (human); compound 1.0 µM
  residual activity: 91%
PIM2 (human); compound 10.0 µM
  residual activity: 93%
PKN2 (human); compound 1.0 µM
  residual activity: 70%
PKN2 (human); compound 10.0 µM
  residual activity: 79%
PRKAA1 or PRKAA2 (rat); compound 1.0 µM
  residual activity: 111%
PRKAA1 or PRKAA2 (rat); compound 10.0 µM
  residual activity: 120%
PRKACA (human); compound 1.0 µM
  residual activity: 94%
PRKACA (human); compound 10.0 µM
  residual activity: 103%
PRKCA (human); compound 1.0 µM
  residual activity: 93%
PRKCA (human); compound 10.0 µM
  residual activity: 86%
RPS6KA1 KD1 KD2 (human); compound 1.0 µM
  residual activity: 122%
RPS6KA1 KD1 KD2 (human); compound 10.0 µM
  residual activity: 98%
SRC (human); compound 1.0 µM
  residual activity: 124%
SRC (human); compound 10.0 µM
  residual activity: 72%
[2]; compound 1.0 µM
  residual activity: 80%
[2]; compound 10.0 µM
  residual activity: 77%
STK3 (human); compound 1.0 µM
  residual activity: 71%
STK3 (human); compound 10.0 µM
  residual activity: 75%
YES1 (human); compound 1.0 µM
  residual activity: 76%
YES1 (human); compound 10.0 µM
  residual activity: 79%

## COc1cc(C(=O)N2CCOCC2)c(F)cc1Nc1ncc(C(F)(F)F)c(NC2CC2)n1
[1]; compound 1.0 µM
  residual activity: 99%
[1]; compound 10.0 µM
  residual activity: 98%
AURKB (human); compound 1.0 µM
  residual activity: 68%
AURKB (human); compound 10.0 µM
  residual activity: 24%
CAMKK2 (human); compound 1.0 µM
  residual activity: 40%
CAMKK2 (human); compound 10.0 µM
  residual activity: 10%
CHEK1 (human); compound 1.0 µM
  residual activity: 58%
CHEK1 (human); compound 10.0 µM
  residual activity: 25%
CHEK2 (human); compound 1.0 µM
  residual activity: 18%
CHEK2 (human); compound 10.0 µM
  residual activity: 3%
EPHB4 (human); compound 1.0 µM
  residual activity: 94%
EPHB4 (human); compound 10.0 µM
  residual activity: 94%
GCK (human); compound 1.0 µM
  residual activity: 73%
GCK (human); compound 10.0 µM
  residual activity: 25%
IGF1R (human); compound 1.0 µM
  residual activity: 35%
IGF1R (human); compound 10.0 µM
  residual activity: 8%
IKBKB (human); compound 1.0 µM
  residual activity: 97%
IKBKB (human); compound 10.0 µM
  residual activity: 89%
MAP2K1 (human); compound 1.0 µM
  residual activity: 95%
MAP2K1 (human); compound 10.0 µM
  residual activity: 81%
MAP3K1 (human); compound 1.0 µM
  residual activity: 90%
MAP3K1 (human); compound 10.0 µM
  residual activity: 109%
MAP3K5 (human); compound 1.0 µM
  residual activity: 66%
MAP3K5 (human); compound 10.0 µM
  residual activity: 13%
MAPK1 (human); compound 1.0 µM
  residual activity: 95%
MAPK1 (human); compound 10.0 µM
  residual activity: 55%
MAPK10 (human); compound 1.0 µM
  residual activity: 80%
MAPK10 (human); compound 10.0 µM
  residual activity: 48%
MAPK15 (human); compound 1.0 µM
  residual activity: 81%
MAPK15 (human); compound 10.0 µM
  residual activity: 28%
MAPK3 (human); compound 1.0 µM
  residual activity: 79%
MAPK3 (human); compound 10.0 µM
  residual activity: 49%
MAPK9 (human); compound 1.0 µM
  residual activity: 108%
MAPK9 (human); compound 10.0 µM
  residual activity: 84%
MAPKAPK2 (human); compound 1.0 µM
  residual activity: 102%
MAPKAPK2 (human); compound 10.0 µM
  residual activity: 97%
MARK2 (human); compound 1.0 µM
  residual activity: 100%
MARK2 (human); compound 10.0 µM
  residual activity: 81%
MINK1 (human); compound 1.0 µM
  residual activity: 124%
MINK1 (human); compound 10.0 µM
  residual activity: 109%
MKNK1 (human); compound 1.0 µM
  residual activity: 74%
MKNK1 (human); compound 10.0 µM
  residual activity: 26%
MKNK2 (human); compound 1.0 µM
  residual activity: 58%
MKNK2 (human); compound 10.0 µM
  residual activity: 22%
NEK2 (human); compound 1.0 µM
  residual activity: 97%
NEK2 (human); compound 10.0 µM
  residual activity: 72%
NTRK1 (human); compound 1.0 µM
  residual activity: 70%
NTRK1 (human); compound 10.0 µM
  residual activity: 54%
PHKG1 (human); compound 1.0 µM
  residual activity: 45%
PHKG1 (human); compound 10.0 µM
  residual activity: 8%
PIM2 (human); compound 1.0 µM
  residual activity: 100%
PIM2 (human); compound 10.0 µM
  residual activity: 107%
PKN2 (human); compound 1.0 µM
  residual activity: 84%
PKN2 (human); compound 10.0 µM
  residual activity: 82%
PRKAA1 or PRKAA2 (rat); compound 10.0 µM
  residual activity: 70%
PRKACA (human); compound 1.0 µM
  residual activity: 102%
PRKCA (human); compound 1.0 µM
  residual activity: 96%
PRKCA (human); compound 10.0 µM
  residual activity: 101%
RPS6KA1 KD1 KD2 (human); compound 1.0 µM
  residual activity: 54%
RPS6KA1 KD1 KD2 (human); compound 10.0 µM
  residual activity: 14%
SRC (human); compound 1.0 µM
  residual activity: 107%
SRC (human); compound 10.0 µM
  residual activity: 81%
[2]; compound 1.0 µM
  residual activity: 88%
[2]; compound 10.0 µM
  residual activity: 92%
STK3 (human); compound 1.0 µM
  residual activity: 111%
STK3 (human); compound 10.0 µM
  residual activity: 92%
YES1 (human); compound 1.0 µM
  residual activity: 89%
YES1 (human); compound 10.0 µM
  residual activity: 110%
